The text below walks through data of patent publication US20250101028A1, “HETEROCYCLIC COMPOUNDS, COMPOSITIONS THEREOF, AND METHODS OF TREATMENT THEREWITH” (BeiGene, Ltd., priority 2022, published 2025).

Structures are written as SMILES.

In the assay the target is T1, GST-tagged GDP-loaded KRAS G12V (amino acids 1-169) (Homo sapiens, UniProt P01116, G12V).
T1 construct: GST-tagged GDP-loaded KRAS G12V (amino acids 1-169); made in house; host or cells: E. coli
T1 sequence (P01116 1-169 isoform P01116-2 G12V): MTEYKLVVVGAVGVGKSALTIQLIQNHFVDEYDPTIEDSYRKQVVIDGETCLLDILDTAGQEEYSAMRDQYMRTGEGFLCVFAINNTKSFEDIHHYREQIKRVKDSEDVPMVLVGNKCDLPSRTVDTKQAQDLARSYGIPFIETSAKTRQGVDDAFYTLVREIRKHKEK
As to the kind of experiment: KRAS G12V probe displacement assay (TR-FRET). In kind it is binding. The settings on record: displacement of biotinylated probe 2 from GDP-loaded KRAS G12V. Here is the method:
KRAS WT and KRAS G12V Probe Displacement Assay
This assay was used to identify compounds which bind to GDP-loaded KRAS protein and are able to displace a biotinylated probe occupying the KRAS binding site. GST-tagged GDP-loaded WT KRAS (amino acids 1-169) and GST-tagged GDP-loaded KRAS G12V (amino acids 1-169) were expressed in E. coli and purified in house. All protein and reaction solutions were prepared in assay buffer containing 50 mM HEPES pH7.5, 50 mM NaCl, 1 mM MgCl2, 1 mM TCEP, 0.01% BSA, and 0.008% Brij-35. Purified WT KRAS (3 nM final concentration) or KRAS G12V protein (2 nM final concentration) was incubated with a 3-fold serially diluted compound in the assay plate (384 well microplate, black, Corning). Plates are incubated at 24° C. for 1 hr. Following the incubation, biotinylated probe 1 (60 nM final assay concentration) for WT KRAS and biotinylated probe 2 (2.5 nM final assay concentration) for KRAS G12V was added to the assay plate, respectively. After 1 hr incubation at 24° C., Mab Anti-GST-Tb cryptate (Cisbio) and Streptavidin-XL665 (Cisbio) were added and further incubated at 24° C. for another 1 hr. The TR-FRET signals (ex337 nm, em665 nm/620 nm) were read on BMG PHERAstar FSX instrument. The inhibition percentage of KRAS protein binding with biotinylated probe in presence of increasing concentrations of compounds was calculated based on the ratio of fluorescence at 665 nm to that at 620 nm. The IC50 value of each compound was calculated from fitting the data to the four-parameter logistic model by Dotmatics.
Molecule `Nc1nc2c(-c3c(C(F)(F)F)cc4c(NC5CCCCC5)nc(OC[C@@]56CCCN5C[C@H](F)C6)nc4c3F)ccc(F)c2s1` [Example 27, 4-(4-(cyclohexylamino)-8-fluoro-2-(((2R,7aS)-2-fluorotetrahydro-1H-pyrrolizin-7a(5H)-yl)methoxy)-6-(trifluoromethyl)quinazolin-7-yl)-7-fluorobenzo[d]thiazol-2-amine] gave an IC50 of 503 nM.
The result for `CN1CC2(CCN(c3nc(OC[C@@]45CCCN4C[C@H](F)C5)nc4c(F)c(-c5ccc(F)c6sc(N)nc56)c(C(F)(F)F)cc34)CC2)CC1=O` [Example 97, 8-(7-(2-amino-7-fluorobenzo[d]thiazol-4-yl)-8-fluoro-2-(((2R,7aS)-2-fluorotetrahydro-1H-pyrrolizin-7a(5H)-yl)methoxy)-6-(trifluoromethyl)quinazolin-4-yl)-2-methyl-2,8-diazaspiro[4.5]decan-3-one] reads 3.8 nM.
The result for `Nc1nc2c(-c3c(C(F)(F)F)cc4c(N5CC6CC5C6)nc(OC[C@@]56CCCN5C[C@H](F)C6)nc4c3F)ccc(F)c2s1` [Example 62, 4-(4-(2-azabicyclo[2.1.1]hexan-2-yl)-8-fluoro-2-(((2R,7aS)-2-fluorotetrahydro-1H-pyrrolizin-7a(5H)-yl)methoxy)-6-(trifluoromethyl)quinazolin-7-yl)-7-fluorobenzo[d]thiazol-2-amine] reads 22 nM; that for `Nc1nc2c(-c3c(C(F)(F)F)cc4c(N5CCC6(CC5)CN(CC5CC5)C(=O)O6)nc(OC[C@@]56CCCN5C[C@H](F)C6)nc4c3F)ccc(F)c2s1` [Example 92, 8-(7-(2-amino-7-fluorobenzo[d]thiazol-4-yl)-8-fluoro-2-(((2R,7aS)-2-fluorotetrahydro-1H-pyrrolizin-7a(5H)-yl)methoxy)-6-(trifluoromethyl)quinazolin-4-yl)-3-(cyclopropylmethyl)-1-oxa-3,8-diazaspiro[4.5]decan-2-one], 2.8 nM; that for `Nc1nc2c(-c3c(C(F)(F)F)cc4c(N5CC[C@H](F)C5)nc(OC[C@@]56CCCN5C[C@H](F)C6)nc4c3F)ccc(F)c2s1` [Example 52, 7-fluoro-4-(8-fluoro-4-((S)-3-fluoropyrrolidin-1-yl)-2-(((2R,7aS)-2-fluorotetrahydro-1H-pyrrolizin-7a(5H)-yl)methoxy)-6-(trifluoromethyl)quinazolin-7-yl)benzo[d]thiazol-2-amine], 19 nM.
With `Nc1cc(Cl)c(C(F)(F)F)c(-c2ncc3c(NC4CCC4)nc(OC[C@@]45CCCN4C[C@H](F)C5)nc3c2F)c1` [Example 111, 7-(5-amino-3-chloro-2-(trifluoromethyl)phenyl)-N-cyclobutyl-8-fluoro-2-(((2R,7aS)-2-fluorotetrahydro-1H-pyrrolizin-7a(5H)-yl)methoxy) pyrido[4,3-d]pyrimidin-4-amine] the figure was 40 nM; with `Nc1nc2c(-c3c(C(F)(F)F)cc4c(N5CCCCC5)nc(OC[C@@]56CCCN5C[C@H](F)C6)nc4c3F)ccc(F)c2s1` [Example 67, 7-fluoro-4-(8-fluoro-2-(((2R,7aS)-2-fluorotetrahydro-1H-pyrrolizin-7a(5H)-yl)methoxy)-4-(piperidin-1-yl)-6-(trifluoromethyl)quinazolin-7-yl)benzo[d]thiazol-2-amine], 30 nM; with `CC(=O)N1C[C@@H]2[C@H](C1)[C@H]2Nc1nc(OC[C@@]23CCCN2C[C@H](F)C3)nc2c(F)c(-c3ccc(F)c4sc(N)nc34)c(C(F)(F)F)cc12` [Example 9, 1-((1R,5S,6s)-6-((7-(2-amino-7-fluorobenzo[d]thiazol-4-yl)-8-fluoro-2-(((2R,7aS)-2-fluorotetrahydro-1H-pyrrolizin-7a(5H)-yl)methoxy)-6-(trifluoromethyl)quinazolin-4-yl)amino)-3-azabicyclo[3.1.0]hexan-3-yl)ethan-1-one], 2.5 nM.
In turn, `Nc1nc2c(-c3c(C(F)(F)F)cc4c(N5CC[C@@H]5CO)nc(OC[C@@]56CCCN5C[C@H](F)C6)nc4c3F)ccc(F)c2s1` [Example 49, ((2R)-1-(7-(2-amino-7-fluorobenzo[d]thiazol-4-yl)-8-fluoro-2-(((2R,7aS)-2-fluorotetrahydro-1H-pyrrolizin-7a(5H)-yl)methoxy)-6-(trifluoromethyl)quinazolin-4-yl)azetidin-2-yl) methanol] displayed an IC50 of 3 nM.
The result for `Nc1nc2c(-c3c(C(F)(F)F)cc4c(N5CC[C@@H](O)C5)nc(OC[C@@]56CCCN5C[C@H](F)C6)nc4c3F)ccc(F)c2s1` [Example 63, (3R)-1-(7-(2-amino-7-fluorobenzo[d]thiazol-4-yl)-8-fluoro-2-(((2R,7aS)-2-fluorotetrahydro-1H-pyrrolizin-7a(5H)-yl)methoxy)-6-(trifluoromethyl)quinazolin-4-yl)pyrrolidin-3-ol] reads 11 nM; that for `N#CC1CCCCN(c2nc(OC[C@@]34CCCN3C[C@H](F)C4)nc3c(F)c(-c4ccc(F)c5sc(N)nc45)c(C(F)(F)F)cc23)C1` (stereo partly drawn) [Example 83, 1-(7-(2-amino-7-fluorobenzo[d]thiazol-4-yl)-8-fluoro-2-(((2R,7aS)-2-fluorotetrahydro-1H-pyrrolizin-7a(5H)-yl)methoxy)-6-(trifluoromethyl)quinazolin-4-yl)azepane-3-carbonitrile], 6.4 nM.
The result for `C[C@@H]1COCCN1c1nc(OC[C@@]23CCCN2C[C@H](F)C3)nc2c(F)c(-c3cc(N)cc(Cl)c3C(F)(F)F)ncc12` [Example 115, 3-chloro-5-(8-fluoro-2-(((2R,7aS)-2-fluorotetrahydro-1H-pyrrolizin-7a(5H)-yl)methoxy)-4-((R)-3-methylmorpholino)pyrido[4,3-d]pyrimidin-7-yl)-4-(trifluoromethyl)aniline] reads 6.5 nM; that for `CC1CCN1c1nc(OC[C@@]23CCCN2C[C@H](F)C3)nc2c(F)c(-c3ccc(F)c4sc(N)nc34)c(C(F)(F)F)cc12` (stereo partly shown) [Example 35], 30 nM.
The result for `Nc1cc(Cl)c(C(F)(F)F)c(-c2ncc3c(N4CCC5CC5(O)C4)nc(OC[C@@]45CCCN4C[C@H](F)C5)nc3c2F)c1` (stereo partly drawn) [Example 131, 3-(7-(5-amino-3-chloro-2-(trifluoromethyl)phenyl)-8-fluoro-2-(((2R,7aS)-2-fluorotetrahydro-1H-pyrrolizin-7a(5H)-yl)methoxy)pyrido[4,3-d]pyrimidin-4-yl)-3-azabicyclo[4.1.0]heptan-1-ol] reads 23 nM.
`Nc1nc2c(-c3c(C(F)(F)F)cc4c(N5CCC6(CC5)CN(CC(F)F)C(=O)O6)nc(OC[C@@]56CCCN5C[C@H](F)C6)nc4c3F)ccc(F)c2s1` [Example 90, 8-(7-(2-amino-7-fluorobenzo[d]thiazol-4-yl)-8-fluoro-2-(((2R,7aS)-2-fluorotetrahydro-1H-pyrrolizin-7a(5H)-yl)methoxy)-6-(trifluoromethyl)quinazolin-4-yl)-3-(2,2-difluoroethyl)-1-oxa-3,8-diazaspiro[4.5]decan-2-one] gave an IC50 of 4.2 nM.
The result for `Nc1nc2c(-c3c(C(F)(F)F)cc4c(N5CCC(F)(F)C5)nc(OC[C@@]56CCCN5C[C@H](F)C6)nc4c3F)ccc(F)c2s1` [Example 53, 4-(4-(3,3-difluoropyrrolidin-1-yl)-8-fluoro-2-(((2R,7aS)-2-fluorotetrahydro-1H-pyrrolizin-7a(5H)-yl)methoxy)-6-(trifluoromethyl)quinazolin-7-yl)-7-fluorobenzo[d]thiazol-2-amine] reads 12 nM; that for `Nc1nc2c(-c3c(C(F)(F)F)cc4c(N5CCC6(CC5)CN(CC(F)(F)F)C(=O)O6)nc(OC[C@@]56CCCN5C[C@H](F)C6)nc4c3F)ccc(F)c2s1` [Example 91, 8-(7-(2-amino-7-fluorobenzo[d]thiazol-4-yl)-8-fluoro-2-(((2R,7aS)-2-fluorotetrahydro-1H-pyrrolizin-7a(5H)-yl)methoxy)-6-(trifluoromethyl)quinazolin-4-yl)-3-(2,2,2-trifluoroethyl)-1-oxa-3,8-diazaspiro[4.5]decan-2-one], 3.8 nM.
With `Nc1nc2c(-c3c(C(F)(F)F)cc4c(NC5CC5c5ccccc5)nc(OC[C@@]56CCCN5C[C@H](F)C6)nc4c3F)ccc(F)c2s1` (relative stereo) [Example 5, 7-fluoro-4-(8-fluoro-2-(((2R,7aS)-2-fluorotetrahydro-1H-pyrrolizin-7a(5H)-yl)methoxy)-4-(((trans)-2-phenylcyclopropyl)amino)-6-(trifluoromethyl)quinazolin-7-yl)benzo[d]thiazol-2-amine] the figure was 45 nM; with `N#C[C@H]1CCCN(c2nc(OC[C@@]34CCCN3C[C@H](F)C4)nc3c(F)c(-c4ccc(F)c5sc(N)nc45)c(C(F)(F)F)cc23)C1` [Example 77, (3S)-1-(7-(2-amino-7-fluorobenzo[d]thiazol-4-yl)-8-fluoro-2-(((2R,7aS)-2-fluorotetrahydro-1H-pyrrolizin-7a(5H)-yl)methoxy)-6-(trifluoromethyl)quinazolin-4-yl)piperidine-3-carbonitrile], 17 nM.

As usually defined, the IC50 is the concentration needed to halve the response being measured. A higher IC50 goes with a need for much substance.
